Among the test systems are DMS-273; HCT-15; UO-31; LOX IMVI; CAKI-1; NCI-H226; CCRF-CEM; OVCAR-4; SNB-75; OVCAR-5; RPMI-8226; SW-620; KM-20L2; A549; OVCAR-8; DMS-114; NCI/ADR-RES; MDA-MB-231; T47D; MCF7.
Common to all, as to experiment: growth of human tumour cells (NCI), 48 h

This note sets out measurements from ChEMBL document CHEMBL1201862, “PubChem BioAssay data set” (2004).

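Values below derive from 48-hour exposures of cells grown in 96-well plates, with endpoints linearly interpolated between the two concentrations bracketing the appropriate inhibition level. GI50 marks 50% less growth.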 Active and inactive are the calls of the source. Rule as the data show it: active = GI50 up to about 1.1 µM and inactive = higher. Some results are limits rather than exact numbers.

On to `Cc1nc2c(=O)[nH]c(=O)n(C)c2[nH]c1=O.c1ccncc1`, for which the GI50 with DMS-273 was > 100 µM (inactive); with HCT-15, > 100 µM; in the assay with UO-31 it was > 100 µM (inactive); with LOX IMVI, > 100 µM (inactive); in the assay with CAKI-1 it was > 100 µM (inactive); with NCI-H226, > 100 µM (inactive). Moreover, the GI50 is 10 µM (inactive) with CCRF-CEM; > 100 µM (inactive) in the assay on OVCAR-4; > 100 µM (inactive) in the assay with SNB-75; > 100 µM (inactive) in the assay with OVCAR-5; > 100 µM (inactive) in the assay on RPMI-8226; > 100 µM (inactive) in the assay on SW-620. Moreover, the GI50 with KM-20L2, in the assay with A549 and in the assay with OVCAR-8 was > 100 µM (inactive) throughout.
`CNS(=O)(=O)NN(C)S(=O)(=O)c1ccc(C)cc1`: the GI50 with UO-31, in the assay on CAKI-1, in the assay on CCRF-CEM, in the assay on OVCAR-4, in the assay on DMS-114 and in the assay with OVCAR-5 was > 100 µM (inactive) each time. The GI50 in the assay on RPMI-8226, in the assay on SW-620, with KM-20L2, with A549 and with OVCAR-8 was > 100 µM (inactive) in each case.
`CC1=C(Cl)C=CP(=O)(OC(C)C)C1` (configuration not stated): the GI50 with HCT-15 was > 100 µM; in the assay with UO-31, > 100 µM (inactive); in the assay on CCRF-CEM it was 37.5 µM (inactive); in the assay on OVCAR-4, > 100 µM (inactive); in the assay with SNB-75, 0.39 µM (active); in the assay on DMS-114, > 100 µM (inactive). The GI50 in the assay with OVCAR-5 is > 100 µM (inactive); in the assay with RPMI-8226 it was 50.2 µM (inactive); in the assay on SW-620, 67.8 µM (inactive); in the assay with KM-20L2, > 100 µM (inactive); in the assay with A549, > 100 µM (inactive); in the assay with OVCAR-8, 36.9 µM (inactive).
Take `CNC(=O)Oc1ccc(-c2cn3cc(OC(=O)NC)ccc3n2)cc1`: the GI50 in the assay on HCT-15 was 36.1 µM; in the assay on UO-31, 26.5 µM (inactive); in the assay on LOX IMVI, 34.3 µM (inactive); in the assay with CAKI-1, 34.1 µM (inactive); in the assay with NCI-H226, > 100 µM (inactive); in the assay on NCI/ADR-RES, 79.1 µM (inactive). Moreover, the GI50 with CCRF-CEM was 17.9 µM (inactive); in the assay with OVCAR-4 it was 51.1 µM (inactive); with SNB-75 it was 62.4 µM (inactive); in the assay on MDA-MB-231 it was > 100 µM (inactive); in the assay on OVCAR-5 it was > 100 µM (inactive); in the assay with T47D it was 31.3 µM (inactive). The GI50 in the assay with MCF7 is 32.4 µM (inactive); in the assay with RPMI-8226, 19.8 µM (inactive); in the assay with SW-620, 35.1 µM (inactive); with A549, 44.1 µM (inactive); in the assay with OVCAR-8 it was 49.9 µM (inactive).
On to `O=C1C(=O)N(c2ccc(Cl)c(Cl)c2)C(=O)C(=O)C1c1nc2ccccc2o1`, for which the GI50 was 70.3 µM (inactive) in the assay on DMS-273; 50.2 µM in the assay with HCT-15; > 100 µM (inactive) in the assay on UO-31; > 100 µM (inactive) in the assay on LOX IMVI; > 100 µM (inactive) with CAKI-1; > 100 µM (inactive) in the assay on NCI-H226. Moreover, the GI50 is 95.7 µM (inactive) with OVCAR-4; > 100 µM (inactive) in the assay on SNB-75; > 100 µM (inactive) in the assay on OVCAR-5; 24.7 µM (inactive) with RPMI-8226; 56.5 µM (inactive) with SW-620; > 100 µM (inactive) in the assay on KM-20L2. Besides, the GI50 with A549 and in the assay with OVCAR-8 was > 100 µM (inactive) each time.
On to `O=[N+]([O-])c1ccc(S(=O)(=O)Cc2ccccc2)c2nonc12`, for which the GI50 with HCT-15 was 22.3 µM; with UO-31, 29.2 µM (inactive); in the assay with LOX IMVI it was 19.2 µM (inactive); with CAKI-1, 20.1 µM (inactive); in the assay on NCI-H226, > 100 µM (inactive); in the assay with NCI/ADR-RES it was 27 µM (inactive). In addition, the GI50 was 9.06 µM (inactive) in the assay with CCRF-CEM; 17.3 µM (inactive) with OVCAR-4; 27.6 µM (inactive) with SNB-75; 22.5 µM (inactive) in the assay with MDA-MB-231; 58.2 µM (inactive) with OVCAR-5; 18.9 µM (inactive) with T47D. The GI50 with MCF7 was 20.2 µM (inactive); in the assay with RPMI-8226, 25.1 µM (inactive); with SW-620, 22.1 µM (inactive); in the assay on A549, 29.4 µM (inactive); with OVCAR-8, 22.1 µM (inactive).
Consider `COc1ccc2oc(S(=O)(=O)N3CC(CCl)c4ccc(N)cc43)cc2c1` (configuration not stated), for which the GI50 was 0.023 µM in the assay on HCT-15; 1.93 µM (inactive) in the assay on UO-31; 0.0471 µM (active) in the assay with LOX IMVI; 0.0366 µM (active) with CAKI-1; 0.0412 µM (active) with NCI-H226; 0.0377 µM (active) in the assay on NCI/ADR-RES. For the same molecule, the GI50 in the assay with CCRF-CEM was 0.0385 µM (active); in the assay with OVCAR-4, 9.77 µM (inactive); with SNB-75, < 0.0215 µM (active); with MDA-MB-231, 2.01 µM (inactive); in the assay on OVCAR-5, > 19.3 µM (inactive); in the assay on T47D it was > 100 µM (inactive). Also, the GI50 was 0.0253 µM (active) in the assay on MCF7; 0.0482 µM (active) in the assay with RPMI-8226; 0.0395 µM (active) in the assay with SW-620; 0.0662 µM (active) with A549; 0.152 µM (active) in the assay with OVCAR-8.
For `Nc1nc(SC/C=C/c2ccccc2)c2[nH]cnc2n1`, the GI50 with HCT-15 is 32.8 µM; with UO-31, 46.8 µM (inactive); in the assay on LOX IMVI it was 53.1 µM (inactive); in the assay with CAKI-1, 38.7 µM (inactive); in the assay on NCI-H226, 35.2 µM (inactive); in the assay with NCI/ADR-RES, 48.9 µM (inactive). Further, the GI50 in the assay on CCRF-CEM is 54.2 µM (inactive); in the assay on OVCAR-4 it was > 100 µM (inactive); with SNB-75 it was 28.6 µM (inactive); with MDA-MB-231, > 100 µM (inactive); with OVCAR-5, > 100 µM (inactive); with T47D it was > 100 µM (inactive). For the same molecule, the GI50 in the assay with MCF7 was > 100 µM (inactive); in the assay with RPMI-8226, 91.4 µM (inactive); in the assay with SW-620, > 100 µM (inactive); in the assay on A549, > 100 µM (inactive); in the assay on OVCAR-8, 74.5 µM (inactive).
Consider `COc1ccc(-c2onc(-c3c(C)cc(C)cc3C)c2C2=NCCN2)cc1`, for which the GI50 in the assay with HCT-15 was 40.3 µM; in the assay on UO-31, 17.1 µM (inactive); in the assay with LOX IMVI, 30.1 µM (inactive); with CAKI-1 it was 21.1 µM (inactive); in the assay with NCI-H226, 17.8 µM (inactive); with CCRF-CEM, 34 µM (inactive). Further, the GI50 was > 100 µM (inactive) in the assay with OVCAR-4; 84.9 µM (inactive) in the assay with SNB-75; > 100 µM (inactive) in the assay with OVCAR-5; 29 µM (inactive) in the assay with RPMI-8226; 47.2 µM (inactive) in the assay with SW-620; 28.3 µM (inactive) with KM-20L2. In addition, the GI50 with A549 was 74.5 µM (inactive); with OVCAR-8, 34.8 µM (inactive).
With `Cc1c2c(c(C)c3c4c(oc13)CCCC4)C=NCC2`, the GI50 with HCT-15 is 13.9 µM; in the assay with UO-31, 13.1 µM (inactive); in the assay with LOX IMVI it was 20.5 µM (inactive); in the assay with CAKI-1, 13.2 µM (inactive); with NCI-H226 it was 14.2 µM (inactive); with NCI/ADR-RES, 15.4 µM (inactive). The GI50 with CCRF-CEM is 12.1 µM (inactive); with OVCAR-4, 22.3 µM (inactive); with SNB-75 it was 15.8 µM (inactive); with MDA-MB-231 it was 16.4 µM (inactive); with OVCAR-5, 16.8 µM (inactive); in the assay on T47D it was 35.6 µM (inactive). For the same molecule, the GI50 in the assay on MCF7 was 16.1 µM (inactive); in the assay on RPMI-8226 it was 0.818 µM (active); with SW-620, 21.3 µM (inactive); with A549, 17 µM (inactive); in the assay on OVCAR-8, 10.6 µM (inactive).
Regarding `CCC(C)n1c(C)nc2c1C(=O)c1ccccc1C2=O` (configuration not stated), the GI50 in the assay with DMS-273 was 34.2 µM (inactive); in the assay with HCT-15 it was 27.2 µM; in the assay with UO-31, 37.8 µM (inactive); in the assay on LOX IMVI, 23.1 µM (inactive); with NCI-H226 it was 61.9 µM (inactive); in the assay on CCRF-CEM, 37.2 µM (inactive). Besides, the GI50 is 73.1 µM (inactive) with OVCAR-4; 42.8 µM (inactive) with SNB-75; 64.7 µM (inactive) in the assay on SW-620; 43.7 µM (inactive) in the assay with KM-20L2; 33.9 µM (inactive) with A549; 47.1 µM (inactive) in the assay on OVCAR-8.
Consider `O=S(=O)(O)c1ccc(Nc2ccnc3cc(Cl)ccc23)cc1`, for which the GI50 was > 100 µM in the assay with HCT-15; > 100 µM (inactive) in the assay with UO-31; > 100 µM (inactive) in the assay with LOX IMVI; > 100 µM (inactive) in the assay on CAKI-1; > 100 µM (inactive) in the assay on NCI-H226; > 100 µM (inactive) in the assay on NCI/ADR-RES. Besides, the GI50 in the assay on CCRF-CEM, in the assay with OVCAR-4, with SNB-75, in the assay with MDA-MB-231, with OVCAR-5 and in the assay with T47D was > 100 µM (inactive) in each case. Besides, the GI50 in the assay on MCF7, in the assay on RPMI-8226, in the assay on SW-620, in the assay on A549 and in the assay with OVCAR-8 was > 100 µM (inactive) in each case.
Take `O=C(O)C(CO)NC(=O)C1C(C(=O)O)C(c2ccccc2[N+](=O)[O-])C=C(c2ccco2)N1c1ccncc1` (configuration not stated): the GI50 is 1.95 µM in the assay on HCT-15; 3.68 µM (inactive) in the assay on UO-31; 1.57 µM (inactive) with LOX IMVI; 8.85 µM (inactive) in the assay on CAKI-1; 14.5 µM (inactive) in the assay on NCI-H226; 9.23 µM (inactive) with NCI/ADR-RES. Besides, the GI50 in the assay on CCRF-CEM was 2.19 µM (inactive); in the assay with OVCAR-4, 12.7 µM (inactive); in the assay on SNB-75 it was 8.97 µM (inactive); in the assay on MDA-MB-231 it was 3.33 µM (inactive); in the assay with OVCAR-5 it was 11.7 µM (inactive); with T47D, 10.2 µM (inactive). In addition, the GI50 is 1.99 µM (inactive) with MCF7; 1.58 µM (inactive) with RPMI-8226; 1.87 µM (inactive) in the assay on SW-620; 3.26 µM (inactive) in the assay on A549; 5.53 µM (inactive) in the assay with OVCAR-8.
